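Assay format: 96-well plates, 48-hour exposure. The concentration for 50% growth inhibition is given as GI50.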 Calls of active or inactive are those of the source. Cut-off read from the data, not from the text of the source: active = GI50 up to about 1.1 µM and inactive = higher. Some results are limits rather than exact numbers.

Some test systems named below: MCF7; SN12C; RXF 393; HOP-92; NCI/ADR-RES; KM12; SF-295; UO-31; 786-0; MDA-MB-435; SK-MEL-28; CCRF-CEM; T47D; NCI-H460; SK-MEL-5; EKVX; OVCAR-3; SF-268; DU-145; OVCAR-8.
What all share (assay): growth of human tumour cells (NCI), 48 h

With `COC(=O)[C@]12CC[C@H]3CN(C(=O)OCc4ccccc4)[C@H]([C@H]31)[C@H](c1ccco1)N2`, the GI50 in the assay with MCF7 is 42.3 µM (inactive); in the assay with SN12C, 46.2 µM (inactive); with RXF 393, > 100 µM (inactive); with HOP-92 it was 29.4 µM (inactive); in the assay with NCI/ADR-RES it was 18.1 µM (inactive); in the assay with KM12, 26.4 µM (inactive). Also, the GI50 was 32.1 µM (inactive) with SF-295; > 100 µM (inactive) with UO-31; 77.8 µM (inactive) with 786-0; 19.4 µM (inactive) in the assay on MDA-MB-435; 51.3 µM (inactive) in the assay on SK-MEL-28; 33.4 µM (inactive) in the assay with CCRF-CEM. Further, the GI50 in the assay on T47D is 42.1 µM (inactive); in the assay with NCI-H460, 45.6 µM (inactive); in the assay on SK-MEL-5, 17 µM (inactive); in the assay on EKVX, 39.9 µM (inactive); in the assay with OVCAR-3 it was 51.6 µM (inactive); with SF-268, 57 µM (inactive). The GI50 in the assay with DU-145 was > 100 µM (inactive); in the assay on OVCAR-8, 33 µM (inactive).
As to `CCCCCCCCCCCCCCCC(=O)N(CCCCCCCCCCC(=O)O)CC(O)C(O)C(OC1OC(CO)C(O)C(O)C1O)C(O)CO` (stereo not given), the GI50 in the assay with MCF7 is 53.6 µM (inactive); with SN12C, 20.5 µM (inactive); in the assay with RXF 393, 48.1 µM (inactive); in the assay on HOP-92, 41.3 µM (inactive); in the assay on NCI/ADR-RES it was 25.7 µM (inactive); with KM12 it was 18.8 µM (inactive). Besides, the GI50 is 15.6 µM (inactive) in the assay on SF-295; 35.1 µM (inactive) in the assay on UO-31; 74.5 µM (inactive) in the assay with 786-0; 49.4 µM (inactive) in the assay with MDA-MB-435; 18.5 µM (inactive) with SK-MEL-28; 26.5 µM (inactive) in the assay with CCRF-CEM. The GI50 in the assay on T47D is 40.7 µM (inactive); with NCI-H460, > 100 µM (inactive); in the assay with SK-MEL-5, 33.5 µM (inactive); with EKVX, 37.6 µM (inactive); in the assay on OVCAR-3 it was > 100 µM (inactive); in the assay on SF-268 it was 21.3 µM (inactive). In addition, the figures for the GI50 in the assay on DU-145 and in the assay on OVCAR-8 were 91 µM (inactive) and 27.1 µM (inactive), respectively.
In the case of `Nc1nc(Cl)c(N)c(NCC2(CO)CCC(OCc3ccccc3)C2)n1` (stereo not given), the GI50 in the assay on MCF7 was 47.8 µM (inactive); in the assay with SN12C, > 100 µM (inactive); with RXF 393 it was 8.85 µM (inactive); in the assay on HOP-92, > 100 µM (inactive); in the assay with NCI/ADR-RES, 13.5 µM (inactive); in the assay on KM12, > 100 µM (inactive). For the same compound, the GI50 is 4.9 µM (inactive) in the assay with SF-295; > 100 µM (inactive) with UO-31; > 100 µM (inactive) in the assay on 786-0; 95.9 µM (inactive) with MDA-MB-435; > 100 µM (inactive) with SK-MEL-28; > 100 µM (inactive) with CCRF-CEM. The GI50 with T47D was 0.372 µM (active); with NCI-H460 it was > 100 µM (inactive); in the assay on SK-MEL-5, 0.305 µM (active); in the assay with EKVX, 0.931 µM (active); with OVCAR-3 it was > 100 µM (inactive); in the assay on SF-268, > 100 µM (inactive). Further, the GI50 in the assay on DU-145 and in the assay on OVCAR-8 was > 100 µM (inactive) throughout.
Consider `COc1cc(CNNC(N)=S)cc(OC)c1OC`, for which the GI50 with MCF7 is > 100 µM (inactive); in the assay with SN12C, > 100 µM (inactive); in the assay with RXF 393 it was > 100 µM (inactive); in the assay with HOP-92, 3.46 µM (inactive); in the assay with NCI/ADR-RES it was > 100 µM (inactive); in the assay on KM12 it was > 100 µM (inactive). For the same compound, the GI50 in the assay on SF-295, in the assay on UO-31, with 786-0, in the assay on MDA-MB-435, with SK-MEL-28 and in the assay on CCRF-CEM was > 100 µM (inactive) throughout. Moreover, the GI50 in the assay with T47D was 7.03 µM (inactive); in the assay with NCI-H460 it was > 100 µM (inactive); in the assay with SK-MEL-5, > 100 µM (inactive); in the assay with EKVX, > 100 µM (inactive); with OVCAR-3, > 100 µM (inactive); in the assay with SF-268, > 100 µM (inactive). Moreover, the GI50 in the assay with DU-145 and in the assay on OVCAR-8 was > 100 µM (inactive) each time.
For `O=C(CSCC(=O)N/N=C/c1ccccc1)N/N=C\c1ccccc1`, the GI50 was > 100 µM (inactive) in the assay with MCF7; > 100 µM (inactive) with SN12C; 65.8 µM (inactive) in the assay on RXF 393; > 100 µM (inactive) with HOP-92; > 100 µM (inactive) in the assay with NCI/ADR-RES; 16.7 µM (inactive) in the assay on KM12. Besides, the GI50 with SF-295, in the assay on UO-31, in the assay on 786-0, in the assay with MDA-MB-435, in the assay with SK-MEL-28 and in the assay with CCRF-CEM was > 100 µM (inactive) throughout. The GI50 in the assay with T47D is 77.6 µM (inactive); in the assay with NCI-H460, > 100 µM (inactive); in the assay on SK-MEL-5 it was > 100 µM (inactive); in the assay with EKVX, > 100 µM (inactive); with OVCAR-3 it was > 100 µM (inactive); in the assay on SF-268, > 100 µM (inactive). Also, the GI50 with DU-145 and in the assay with OVCAR-8 was > 100 µM (inactive) in each case.
With `Nc1ccc(S(=O)(=O)Nc2nc3ccccc3nc2Nc2ccc(S(N)(=O)=O)cc2)cc1`, the GI50 is 57.8 µM (inactive) in the assay with MCF7; 34.6 µM (inactive) with SN12C; 20.8 µM (inactive) in the assay on RXF 393; 17.6 µM (inactive) in the assay on HOP-92; 45.9 µM (inactive) with NCI/ADR-RES; 33 µM (inactive) in the assay on KM12. Further, the GI50 was 26.9 µM (inactive) in the assay on SF-295; 18.2 µM (inactive) in the assay on UO-31; 58.3 µM (inactive) in the assay with 786-0; 49.3 µM (inactive) in the assay with MDA-MB-435; 30.2 µM (inactive) in the assay with SK-MEL-28; 48.8 µM (inactive) in the assay on CCRF-CEM. Moreover, the GI50 is 40.7 µM (inactive) with T47D; > 100 µM (inactive) with NCI-H460; 49.8 µM (inactive) in the assay on SK-MEL-5; 75.7 µM (inactive) with EKVX; 32.4 µM (inactive) in the assay with OVCAR-3; 17.5 µM (inactive) with SF-268. Further, the GI50 in the assay with DU-145 is 44.9 µM (inactive); in the assay with OVCAR-8, 45.4 µM (inactive).
With `CC(=O)[O-].[Zn+].c1ccc(/C(=N\Nc2ccccn2)c2ccccn2)cc1`, the GI50 in the assay with MCF7 was 0.000912 µM (active); in the assay with SN12C, 0.0424 µM (active); in the assay with RXF 393, 0.3 µM (active); in the assay with HOP-92, 0.381 µM (active); in the assay on NCI/ADR-RES it was 0.0303 µM (active); in the assay on KM12 it was 0.356 µM (active). Further, the GI50 in the assay with SF-295 is 0.348 µM (active); with UO-31, 0.253 µM (active); in the assay on 786-0 it was 0.137 µM (active); with MDA-MB-435 it was 0.408 µM (active); in the assay on SK-MEL-28, 0.255 µM (active); in the assay on CCRF-CEM it was 0.00277 µM (active). Further, the GI50 is 0.00206 µM (active) in the assay on T47D; 0.31 µM (active) with NCI-H460; 0.0684 µM (active) in the assay with SK-MEL-5; 0.00629 µM (active) in the assay with EKVX; 0.0015 µM (active) with OVCAR-3; 0.277 µM (active) with SF-268. Besides, the GI50 with DU-145 is 0.458 µM (active); in the assay with OVCAR-8, 0.0519 µM (active).
On to `CN(C(=O)C1=CCCCCC1)c1ccccc1I`, for which the GI50 in the assay with MCF7 is 51.5 µM (inactive); in the assay with SN12C, 49.1 µM (inactive); with RXF 393, > 100 µM (inactive); in the assay with HOP-92 it was > 10 µM (inactive); in the assay on NCI/ADR-RES, 25.6 µM (inactive); with KM12, 19.1 µM (inactive). Further, the GI50 in the assay on SF-295 was 44.9 µM (inactive); in the assay with UO-31, 41.4 µM (inactive); in the assay on 786-0, 27.8 µM (inactive); in the assay on MDA-MB-435, 40.2 µM (inactive); with SK-MEL-28, 37.5 µM (inactive); with CCRF-CEM, 41.7 µM (inactive). Moreover, the GI50 with T47D was 23.7 µM (inactive); in the assay on NCI-H460, 32 µM (inactive); in the assay on SK-MEL-5, 23.6 µM (inactive); with EKVX it was 28.4 µM (inactive); in the assay with OVCAR-3 it was 49.7 µM (inactive); in the assay on SF-268 it was 24.3 µM (inactive). In addition, the figures for the GI50 in the assay with DU-145 and in the assay with OVCAR-8 were 50.7 µM (inactive) and 38.5 µM (inactive), respectively.

The values above are taken from ChEMBL document CHEMBL1201862, “PubChem BioAssay data set” (2004).
